Key:
[1] = Differential scanning calorimetry (DSC), glass transition temperature; type: physicochemical; conditions: neat substance (not a solid solution)
Method: DSC curves were measured with a Pyris 1 (Perkin Elmer) device. The sample charge was 3-4 mg, heating rate 10 °C/min. Nitrogen was used as a carrier gas (20 ml/min).
The products were characterized by XRPD and DSC analysis.
In all cases the Tg values were higher for solid solution of 1:2 ratio than those for 1:1 ratio. Therefore, the 1:2 API to polymer ratio was able to form more physically stable solid solutions. It is known that the physical stability of the solid solution is increased with a higher glass transition temperature (Hancock and Zografi, 1997).

[2] = low solubility, low permeability; cited from earlier work

glass transition temperature (Tg) [1]	Compound	Biopharmaceutical Classification System (BCS) class [2]
about 46 °C	CCCSc1nc(N[C@@H]2C[C@H]2c2ccc(F)c(F)c2)c2nnn([C@@H]3C[C@H](OCCO)[C@@H](O)[C@H]3O)c2n1 [Amorphous ticagrelor, (1S,2S,3R,5S)-3-[7-[(1R,2S)-2-(3,4-Difluorophenyl)cyclopropylamino]-5-(propylthio)-3H-[1,2,3]triazolo[4,5-d]pyrimidin-3-yl]-5-(2-hydroxyethoxy)cyclopentane-1,2-diol]	
	CCCSc1nc(N[C@@H]2C[C@H]2c2ccc(F)c(F)c2)c2nnn([C@@H]3C[C@H](OCCO)[C@@H](O)[C@H]3O)c2n1 [ticagrelor, (1S,2S,3R,5S)-3-[7-[(1R,2S)-2-(3,4-Difluorophenyl)cyclopropylamino]-5-(propylthio)-3H-[1,2,3]triazolo[4,5-d]pyrimidin-3-yl]-5-(2-hydroxyethoxy)cyclopentane-1,2-diol]	class IV

From EP2813216A1, “Stabilized amorphous ticagrelor” (Zentiva, a.s., priority 2013, dated 2014)
